Literature values in patent publication US20160175250A1, “Method for Making Liposomes Containing an Active Pharmaceutical Ingredient” (Tolmar Inc., priority 2014, published 2016).

Conditions: patients receiving doses greater than 550 mg per square meter of body area

In the case of COc1cccc2c1C(=O)c1c(O)c3c(c(O)c1C2=O)C[C@@](O)(C(=O)CO)C[C@@H]3O[C@H]1C[C@H](N)[C@H](O)[C@H](C)O1 [doxorubicin, Doxorubicin], the “congestive heart failure from cumulative dose dependent irreversible cardiomyopathy, share of patients” value is given as 1-10%.
